# Results: patent US12551458B2, “Topical pharmaceutical composition containing phospholipids” (EGIS GYÓGYSZERGYÁR ZRT., priority 2021, dated 2026)
# What was measured:
# [1] = system: CCI operated paw of rats (neuropathic pain); assay: Rat chronic constriction injury (CCI) model, paw withdrawal threshold with electronic von Frey device; assay type: in vivo, Wistar rats; conditions: oral 16.66 mg/kg
# Source text: Furthermore, based on the article Bennett G J, at al (Pain., A peripheral mononeuropathy in rat that produces disorders of pain sensation like those seen in man. 1988 April; 33(1):87-107) we have developed a method for the examination of the compositions of the present invention. Thus, we have examined the compositions according to the present invention also with a different model for measuring the alleviation of the peripheral neuropathic pain also. Namely, we have carried out examinations on rats using Chronic constriction injury (CCI) model. Three weeks following nerve injury rats were assessed for hind paw mechanical withdrawal thresholds. The paw withdrawal threshold (PWT) was determined with an Electronic von Frey device according to the modified up-down method of Dixon (Efficient analysis of experimental observations., Annu Rev Pharmacol Toxicol. 1980; 20:441-62). […] The method and results are shown in example 3 and on FIG. 9.
# Briefly, under isoflurane anesthesia small blunt dissection was made into the skin of rat right thigh then three loosely constrictive ligatures were placed around common sciatic nerve (chronic constriction injury CCI). Three weeks following nerve injury rats were assessed for hind paw mechanical withdrawal thresholds. […]
# [2] = system: allodynia in nerve-ligated mice; conditions: cited from earlier work
# [3] = system: neuropathic pain in a human patient; conditions: topical aqueous solution; cited from earlier work
# pain = conditions: compositions containing 1 and 3% of pregabalin; cited from earlier work
# [4] = Solubility of pregabalin in solvents; conditions: any solvents
# [5] = Pharmacokinetic studies in rats (blood levels of pregabalin)
smiles,measurement,setting,value
CC(C)C[C@H](CN)CC(=O)O [pregabalin],Reduction of hypersensitivity after oral administration,[1],not able to reduce hypersensitivity
same,Time of maximum allodynia alleviating effect,[2]; topical 2.5% aqueous solution without other ingredients,1 h
same,Alleviating effect after 3 hours and 6 hours,[2]; topical 2.5% aqueous solution,essentially disappeared
same,Time for which neuropathic pain was reduced,[3],6 h
same,Time after which the pain alleviation effect decreased,pain,1.5 to 2 h
same,Solubility,[4],poor
same,Blood levels after oral administration,[5]; oral 16.66 mg/kg,relatively high blood levels
same,Amount entering the bloodstream during topical treatment,[5]; topical treatment,very small amounts
